Measured values published in article PMC3157426 (PLoS ONE, 2011).
Where “and” joins values, the source holds several entries; their conditions need not be identical. Identical values can stand only once. Like-named read-outs stand apart in the source and are kept apart here.

Experiments:
[1] = biological target: B/Perth/211/01 influenza B wild type NA (Influenza B virus, UniProt Q3S340); assay type: biochemical, influenza B virus B/Perth/211/01
[2] = biological target: A/Mississippi/03/01 H1N1 wild type NA (Influenza A virus, UniProt Q289M4); assay type: biochemical, influenza virus A/Mississippi/03/01 H1N1
[3] = biological target: A/Fukui/45/04 H3N2 wild type NA (Influenza A virus, UniProt C0IZY2); assay type: biochemical, influenza virus A/Fukui/45/04 H3N2
[4] = biological target: H1N1 pandemic influenza virus A/Swine/Shepparton/2009 NA (Influenza A virus, UniProt I6NQT4); test: biochemical; assay type: biochemical, influenza virus A/Swine/Shepparton/2009 pandemic H1N1
[5] = biological target: clade 1 H5N1 virus from Vietnam N1 NA (Influenza A virus, UniProt Q6DPL2); assay type: biochemical, avian influenza H5N1 clade 1 (Vietnam)
[6] = biological target: clade 2 H5N1 virus from Indonesia N1 NA (Influenza A virus, UniProt Q6R2G6); assay type: biochemical, avian influenza H5N1 clade 2 (Indonesia)
N2 NA = conditions: cited from earlier work
[7] = read-out: IC50 at 10 min, 30' Pre
[8] = read-out: IC50 at 10 min, No pre
[9] = read-out: final IC50 after 60 min, 30' pre
[10] = read-out: final IC50 after 60 min, No pre
[11] = read-out: IC50 on relative slope, Rates time interval 30-40
[12] = read-out: IC50 on relative slope, Rates time interval 40-50
[13] = read-out: IC50 on relative slope, Rates time interval 50-60

CC(=O)N[C@H]1[C@H]([C@H](O)[C@H](O)CO)OC(C(=O)O)=C[C@@H]1O [DANA, 2-deoxy,2,3-dehydro N-acetyl neuraminic acid]
binding phenotype (slow or fast binding) [1]: fast binding | binding phenotype (slow or fast binding) [2]: fast binding | binding phenotype (slow or fast binding) [3]: fast binding | binding phenotype (slow or fast binding) [4]: fast binding | binding phenotype (slow or fast binding) [5]: fast binding | binding phenotype (slow or fast binding) [6]: fast binding

CCC(CC)[C@H](NC(C)=O)[C@@H]1[C@H](O)[C@@H](C(=O)O)C[C@H]1N=C(N)N [Peramivir, peramivir]
10'/60 (ratio of IC50s), No pre [1]: 9.3 | 60'/10 (ratio of IC50s), 30' Pre [1]: 1.5 | No pre/pre (ratio of 60 min IC50s) [1]: 9.8 | IC50 [1, 7]: 1.9 nM | IC50 [1, 8]: 259 nM | IC50 [1, 9]: 2.8 nM | IC50 [1, 10]: 27.8 nM | 10'/60 (ratio of IC50s), No pre [2]: 6.5 | 60'/10 (ratio of IC50s), 30' Pre [2]: 1.4 | No pre/pre (ratio of 60 min IC50s) [2]: 8.2 | IC50 [2, 7]: 0.3 nM | IC50 [2, 8]: 20.2 nM | IC50 [2, 9]: 0.4 nM | IC50 [2, 10]: 3.1 nM | 10'/60 (ratio of IC50s), No pre [3]: 8.7 | 60'/10 (ratio of IC50s), 30' Pre [3]: 1.3 | No pre/pre (ratio of 60 min IC50s) [3]: 9.0 | IC50 [3, 7]: 1 nM | IC50 [3, 8]: 103 nM | IC50 [3, 9]: 1.3 nM | IC50 [3, 10]: 11.9 nM | 10'/60 (ratio of IC50s), No pre [4]: 5.1 | 60'/10 (ratio of IC50s), 30' Pre [4]: 1.5 | No pre/pre (ratio of 60 min IC50s) [4]: 7.1 | IC50 [4, 7]: 0.2 nM | IC50 [4, 8]: 10.1 nM | IC50 [4, 9]: 0.3 nM | IC50 [4, 10]: 2 nM | 10'/60 (ratio of IC50s), No pre [5]: 6.6 | 60'/10 (ratio of IC50s), 30' Pre [5]: 1.3 | No pre/pre (ratio of 60 min IC50s) [5]: 21.0 | IC50 [5, 7]: 0.2 nM | IC50 [5, 8]: 40.9 nM | IC50 [5, 9]: 0.3 nM | IC50 [5, 10]: 6.2 nM | 10'/60 (ratio of IC50s), No pre [6]: 7.0 | 60'/10 (ratio of IC50s), 30' Pre [6]: 1.4 | No pre/pre (ratio of 60 min IC50s) [6]: 9.3 | IC50 [6, 7]: 0.4 nM | IC50 [6, 8]: 37.7 nM | IC50 [6, 9]: 0.6 nM | IC50 [6, 10]: 5.4 nM

CC(=O)N[C@H]1[C@H]([C@H](O)[C@H](O)CO)OC(C(=O)O)=C[C@@H]1N=C(N)N [Zanamivir, zanamivir]
IC50 ([4]; IC50 at 10 min, 30' Pre): 0.5 nM | IC50 ([4]; IC50 at 10 min, No pre): 29.5 nM | IC50 ([4]; final IC50 after 60 min, 30' pre): 1.4 nM | IC50 ([4]; final IC50 after 60 min, No pre): 5.8 nM | variation of the apparent Ki depending on the incubation conditions (N2 NA): 10,000 fold

oseltamivir carboxylate
IC50 [2, 7]: 0.5 nM | IC50 [2, 8]: 12.2 nM | IC50 ([2]; read-out: IC50 on relative slope, Rates time interval 20-30): 6.2 nM and 3.9 nM | IC50 [2, 11]: 6.7 nM and 4.6 nM | IC50 [2, 12]: 6.8 nM and 5 nM | IC50 [2, 13]: 7.9 nM and 5.6 nM | IC50 [2, 9]: 3.1 nM | IC50 [2, 10]: 7.3 nM | binding phenotype (slow or fast binding) [3]: slow binding phenotype | IC50 [3, 7]: 0.5 nM | IC50 [3, 8]: 30.4 nM | IC50 [3, 11]: 3.8 nM and 2.5 nM | IC50 [3, 12]: 3.8 nM and 3.3 nM | IC50 [3, 13]: 3.4 nM | IC50 [3, 9]: 1.7 nM | IC50 [3, 10]: 5.3 nM | IC50 [4, 7]: 0.5 nM | IC50 [4, 8]: 15.8 nM | IC50 [4, 9]: 5.1 nM | IC50 [4, 10]: 6.8 nM | IC50 [6, 7]: 0.9 nM | IC50 [6, 8]: 28.3 nM | IC50 [6, 9]: 19.6 nM | IC50 [6, 10]: 21.4 nM
